Experimental data taken from US12030896B2, “PIKfyve inhibitors” (Mayo Foundation for Medical Education and Research, priority 2018, dated 2024).
Blank lines part the entries; values can stand above or below the compound they belong to.

Experiments:
cells in culture = test: Vacuolization activity in cells in culture; type: cell-based
Excerpt: (§1) As used herein the term “EC50 (μM)” refers to the μM concentration of a compound that is required for 50% activity in a vacuolization assay.
Example 2 is a biotinylated derivative of the compound of Example 1.

468 kinases = test: Kinase selectivity panel (Treespot dendrogram); type: binding
Description: In contrast, 50 nM Apilimod inhibited two kinases to 1% or 10%, and 3 kinases to 35% of control. To examine non-specific binding at higher concentrations, Example 1, Example 3, and Apilimod were tested at 5000 nM. […] PIKfyve is represented at the bottom left of each dendrogram.

IL12 and IL23 = details: myeloid cells; cited from earlier work
[1] = oral; cited from earlier work
[2] = cited from earlier work
U251 = U251 Vacuolization Assay (24h); type: cell-based; details: Homo sapiens, U-251
Description: as §1
Example A—U251 Vacuolization Assay Data (24h) for Compounds of Examples 8-56

U251 glioblastoma cell = test: Cell killing in combination with vemurafenib; type: cell-based, human; details: 10 μM vemurafenib, 0 μM Example 1, 72 hour
Description: A 25 mM stock of vemurafenib (obtained from Selleckchem) in DMSO was diluted to 2× the indicated concentration into the cell suspension immediately prior to plating the cell suspension onto the pre-diluted Example 1 or Example 3, to result in a final 1× concentration of both compounds.
See FIG. 13 for showing of U251 glioblastoma cell killing by Example 1 alone or in the presence of 10 μM vemurafenib over a 72 hour time course.

Compound: O=C(CCCC[C@@H]1SC[C@@H]2NC(=O)N[C@@H]21)Nc1ccc(Nc2nc(N/N=C/c3c[nH]c4ccccc34)nc(N3CCOCC3)n2)cc1 [Example 2, (E)-N-(4-((4-(2-((1H-indol-3-yl)methylene)hydrazinyl)-6-morpholino-1,3,5-triazin-2-yl)amino)phenyl)-5-(2-oxohexahydro-1H-thieno[3,4-d]imidazol-4-yl)pentanamide]
EC50 (cells in culture): 8 nM

Compound: Cc1cccc(/C=N/Nc2cc(N3CCOCC3)nc(OCCc3ccccn3)n2)c1 [Apilimod, 3-Methylbenzaldehyde 2-[6-(4-Morpholinyl)-2-[2-(2-pyridinyl)ethoxy]-4-pyrimidinyl]hydrazine]
number of kinases blocked to 1% of control (468 kinases; 50 nM, 468 kinases): two
number of kinases blocked to 10% of control (468 kinases; 50 nM, 468 kinases): two
number of kinases blocked to 35% of control (468 kinases; 50 nM, 468 kinases): 3
number of kinases blocked to 1% activity level (468 kinases; 5000 nM): 4
number of kinases blocked to 10% activity level (468 kinases; 5000 nM): 9
number of kinases blocked to 35% activity level (468 kinases; 5000 nM): 15
selectivity for PIKfyve (468 kinases; comparison of Example 1, Example 3 and apilimod): less specific
IL12 and IL23 production (IL12 and IL23): suppresses
IFN-gamma production by ex vivo cells [1]: decreased
TH1 / TH2 responses [1]: suppressed TH1 but not TH2 responses
inflammatory histopathologic skin changes [1]: markedly reduced
dose limiting toxicity ([2]; headache, flushing, hypoesthesia, dizziness, paresthesia): 105 mg bid
mean improvement in PASI score ([2]; oral, 70 mg qd): 46%
patients with histologic improvement ([2]; oral, 70 mg qd): 47%
IL12 and IL23 expression in skin lesions ([2]; oral): significantly reduced

Compound: Cc1ccc(Nc2nc(N/N=C/c3c[nH]c4ccccc34)nc(N(C)C)n2)cc1 [Example 30, (E)-6-(2-((1H-Indol-3-yl)methylene)hydrazinyl)-N2,N2-dimethyl-N4-(p-tolyl)-1,3,5-triazine-2,4-diamine]
EC50 (U251): > 50000 nM

Compound: CCCS(=O)(=O)Nc1ccc(F)c(C(=O)c2c[nH]c3ncc(-c4ccc(Cl)cc4)cc23)c1F [vemurafenib, N-(3-(5-(4-chlorophenyl)-1H-pyrrolo[2,3-b]pyridine-3-carbonyl)-2,4-difluorophenyl)propane-1-sulfonamide, reference compound]
effect on cell killing, alone (U251 glioblastoma cell): little effect

Compound: Cc1ccc(Nc2nc(N/N=C/c3c[nH]c4ccccc34)nc(N3CCNCC3)n2)cc1 [Example 18, {4-[N′-(1H-Indol-3-ylmethylene)-hydrazino]-6-piperazin-1-yl-[1,3,5]triazin-2-yl}-p-tolyl-amine]
EC50 (U251): > 50000 nM

Compound: Cc1ccc(Nc2nc(NCCO)nc(N/N=C/c3c[nH]c4ccccc34)n2)cc1 [Example 13, 2-{4-[N′-(1H-Indol-3-ylmethylene)-hydrazino]-6-p-tolylamino-[1,3,5]triazin-2-ylamino}-ethanol]
EC50 (U251): > 50000 nM

Compound: CN(C)c1ccc(Nc2nc(N/N=C/c3c[nH]c4ccccc34)nc(N3CCOCC3)n2)cc1 [Example 34, (E)-N1-(4-(2-((1H-indol-3-yl)methylene)hydrazinyl)-6-morpholino-1,3,5-triazin-2-yl)-N4,N4-dimethylbenzene-1,4-diamine]
EC50 (U251): ≤ 1000 nM

Compound: Fc1ccc(Nc2nc(N/N=C/c3c[nH]c4ccccc34)nc(N3CCOCC3)n2)cc1 [Example 10, (4-Fluoro-phenyl)-{4-[N′-(1H-indol-3-ylmethylene)-hydrazino]-6-morpholin-4-yl-[1,3,5]triazin-2-yl}-amine]
EC50 (U251): ≤ 1000 nM

Now from value to compound:

EC50 (U251): ≤ 1000 nM
Compound: CC(=O)Nc1ccc(Nc2nc(N/N=C/c3c[nH]c4ccccc34)nc(N3CCOCC3)n2)cc1 [Example 28, (E)-N-(4-((4-(2-((1H-indol-3-yl)methylene)hydrazinyl)-6-morpholino-1,3,5-triazin-2-yl)amino)phenyl)acetamide]

EC50 (U251): ≤ 1000 nM
Compound: Clc1cccc(Nc2nc(N/N=C/c3c[nH]c4ccccc34)nc(N3CCOCC3)n2)c1 [Example 25, (3-Chloro-phenyl)-{4-[N′-(1H-indol-3-ylmethylene)-hydrazino]-6-morpholin-4-yl-[1,3,5]triazin-2-yl}-amine]

EC50 (U251): > 50000 nM
Compound: Cc1ccc(Nc2nc(N/N=C/c3c[nH]c4ccccc34)nc(N3CCCC3)n2)cc1 [Example 16, {4-[N′-(1H-Indol-3-ylmethylene)-hydrazino]-6-pyrrolidin-1-yl-[1,3,5]triazin-2-yl}-p-tolyl-amine]

EC50 (U251): 1000 to 10000 nM
Compound: Cc1ccc(Nc2nc(NCc3c[nH]c4ccccc34)nc(N3CCOCC3)n2)cc1 [Example 8, N-(1H-Indol-3-ylmethyl)-6-morpholin-4-yl-N′-p-tolyl-[1,3,5]triazine-2,4-diamine]

EC50 (U251): > 50000 nM
Compound: Cc1ccc(Nc2nc(NCCc3c[nH]c4ccccc34)nc(N3CCOCC3)n2)cc1 [Example 54, N2-(2-(1H-indol-3-yl)ethyl)-6-morpholino-N4-(p-tolyl)-1,3,5-triazine-2,4-diamine]

EC50 (U251): ≤ 1000 nM
Compound: FC(F)(F)c1ccc(Nc2nc(N/N=C/c3c[nH]c4ccccc34)nc(N3CCOCC3)n2)cc1 [Example 20, (E)-4-(2-((1h-indol-3-yl)methylene)hydrazinyl)-6-morpholino-n-(4-(trifluoromethyl)phenyl)-1,3,5-triazin-2-amine]

EC50 (U251): > 50000 nM
Compound: CCN(C)c1nc(N/N=C/c2c[nH]c3ccccc23)nc(Nc2ccc(C)cc2)n1 [Example 35, (E)-6-(2-((1H-Indol-3-yl)methylene)hydrazinyl)-N2-ethyl-N2-methyl-N4-(p-tolyl)-1,3,5-triazine-2,4-diamine]

EC50 (U251): ≤ 1000 nM
Compound: Cc1ccc(Nc2nc(N/N=C/c3c[nH]c4ccccc34)nc(N3CCc4ccccc4C3)n2)cc1 [Example 47, (E)-4-(2-((1H-Indol-3-yl)methylene)hydrazinyl)-6-(3,4-dihydroisoquinolin-2(1H)-yl)-N-(p-tolyl)-1,3,5-triazin-2-amine]
